Measured values published in US7179800B2 (priority 2002, dated 2007).
Where two headings read alike, the source gives them in different places.

How the values were obtained:
[1] = target: T1, CB2 receptor (Homo sapiens, UniProt P34972); experiment: CB2 binding procedure: displacement of [3H]CP-55,940 from membranes of transfected CHO cells; settings: for CB1/CB2 (ratio of Ki): CB1 Ki divided by CB2 Ki; for Ki: [3H]CP-55,940, transfected CHO cell membranes; for fold decrease in CB2 affinity: relative to the comparator analog
T1 construct: expressed in transfected cells; host or cells: CHO cells, G418-selected transfected line
T1 sequence (P34972 whole entry): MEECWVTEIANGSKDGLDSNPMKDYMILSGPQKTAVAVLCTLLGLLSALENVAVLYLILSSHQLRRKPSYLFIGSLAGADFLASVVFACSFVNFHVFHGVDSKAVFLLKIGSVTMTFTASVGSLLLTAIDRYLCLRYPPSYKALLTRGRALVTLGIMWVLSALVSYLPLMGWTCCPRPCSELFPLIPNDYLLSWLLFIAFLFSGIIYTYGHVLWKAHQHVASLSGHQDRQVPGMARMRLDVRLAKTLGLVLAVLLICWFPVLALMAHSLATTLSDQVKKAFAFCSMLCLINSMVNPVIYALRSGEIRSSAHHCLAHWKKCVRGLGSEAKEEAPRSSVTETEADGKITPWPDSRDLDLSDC
Method: Membranes for CB2 binding were obtained from CHO cells. The transfected cell line was maintained in Dublecco's Modified Eagle Medium (Gibco BRL, Grand Island, N.Y.) with 10% fetal clone II (HyClone Laboratories, Inc., Logan, Utah) plus 0.3 to 0.5 mg/ml G418 (to maintain selective pressure) under 5% CO2 at 37% C. Cells were harvested with 1 mM EDTA in phosphate-buffered saline and were centrifuged at 1000×g for 5 min at 4% C. The supernatant was saved and the P1 pellet was resuspended in centrifugation buffer. Homogenization and centrifugation were repeated twice and the combined supernatant fractions were centrifuged at 40,000×g for 30 min at 4% C. The P2 pellet was resuspended in centrifugation buffer 2 (Tris HCl, 50 mM; EDTA, 1 mM; and MgCl2, 3 mM, pH 7.4) to a protein concentration of approximately 2 mg/ml. Protein concentrations were determined by the method of Bradford (1976) using Bio-Rad Protein Assay (Bio-Rad, Richmond, Calif.) and BSA standards (fatty acid free, Sigma Chemical Co., St. Louis, Mo.). The membrane preparation was divided into amounts convenient for binding assays and frozen rapidly in dry ice and stored at −80% C.
Binding was initiated by the addition of 50 μg of quickly thawed P2 membranes to test tubes containing [^3H]CP-55,940 (final reaction concentration 0.5 nM), an appropriate concentration of unlabeled CP-55,940 or test drug, and sufficient quantity of assay buffer (50 mM Tris-HCl, 1 mM EDTA, 3 mM MgCl2, 5 mg/ml bovine serum albumin, pH 7.4) to bring the total incubation volume to 0.5 ml. Concentration of [^3H]CP-55,940 in saturation studies ranged from 50 to 10,000 pM. Nonspecific binding was determined by the addition of 1 μM unlabeled CP-55,940. CP-55,940 and all cannabinoid analogs were prepared by suspension in assay buffer from a 1 mg/ml ethanolic stock without evaporation of the ethanol (final concentration of no more than 0.4%). In competition studies, analog concentrations ranged from 0.1 nM to 10 μM. After incubation at 30% C for 1 hr, binding was terminated by the addition of 2 ml of ice-cold wash buffer (50 mM Tris-HCl and 1 mg/ml BSA) and vacuum filtration through pre-treated filters in a 12-well sampling manifold (Millipore, Bedford, Mass.). Reaction vessels were washed once with 2 ml of ice-cold wash buffer. Filters were placed into 7-ml plastic scintillation vials (RPI Corp., Mount Prospect, Ill.) with 4 ml of Budget-Solve (RPI Corp.). After shaking for 30 min, the radioactivity present was determined by liquid scintillation spectrometry. Three reaction vessels were used for each drug concentration in each assay. The results represent the combined data of three independent experiments. All assays were performed in siliconized test tubes, which were prepared by air drying (12 hr) inverted borosilicate tubes after two rinses with a 0.1% solution of AquaSil (Pierce, Rockford, Ill.). The GF/C glass-fiber filters (2.4 cm, Baxter, McGaw Park, Ill.) were pre-treated in a 0.1% solution of pH 7.4 polyethylenimine (Sigma Chemical Co.) for at least 6 hr.
(§1) In addition, multiple linear regression was used to calculate the overall degree of relationship between CB1 binding affinity and potency in the mouse measures for all active cannabinoids. […] Ki values for CB1 and CB2 binding were obtained from Scatchard displacement analysis as determined via EBDA program of the KELL software package (Biosoft, Milltown, N.J.).

[2] = system: Male ICR mice; experiment: Suppression of spontaneous activity (SA) in mice; assay type: in vivo, mouse; settings: for S.A ED50 / ED50 SA (suppression of spontaneous activity) / ED50 / SA percent effect at the highest dose: mice, i.v.; for S.A % effect at dose: @ 30 (mg/kg); for ED50: Mus musculus, iv; for SA percent effect at the highest dose: 30 mg/kg, % inhibition of activity of vehicle group
Method: (§2) Male ICR mice (25–32 g), obtained from Harlan (Dublin, Va.), were housed in groups of five. All animals were kept in a temperature-controlled (20–22° C.) environment with a 12-hour light-dark cycle (lights on at 7 a.m.). Separate mice were used for testing each drug dose in the in vivo behavioral procedures. Brain tissue for binding studies was obtained from male Sprague-Dawley rats (150–200 g) purchased from Harlan Laboratories (Dublin, Va.).
(§3) Measurement of spontaneous activity in mice occurred in standard activity chambers interfaced with a Digiscan Animal Activity Monitor (Omnitech Electronics, Inc., Columbus, Ohio). A standard tail-flick apparatus and a digital thermometer (Fisher Scientific, Pittsburgh, Pa.) were used to measure antinociception and rectal temperature, respectively
(§4) Resorcinols were synthesized in our labs (Organix, Inc., Woburn, Mass.) according to the procedure specified below and were suspended in a vehicle of absolute ethanol, Emulphor-620 (Rhone-Poulenc, Inc., Princeton, N.J.), and saline in a ratio of 1:1:18. Drugs were administered to the mice intravenously (i.v.) in the tail vein at a volume of 0.1 ml/10 g.
(§5) Prior to testing in the behavioral procedures, mice were acclimated to the experimental setting (ambient temperature 22–24° C.) overnight. Pre-injection control values were determined for rectal temperature and tail-flick latency (in sec). […] Tail-flick latency was measured at 20 min post-injection. Maximum latency of 10 sec was used. Antinociception was calculated as percent of maximum possible effect {% MPE=[(test−control latency)/(10-control)]×100}. Control latencies typically ranged from 1.5 to 4.0 sec. At 30 min post-injection, rectal temperature was measured This value was expressed as the difference between control temperature (before injection) and temperatures following drug administration (° C.). Different mice (n=5–6 per dose) were tested for each dose of each compound. Each mouse was tested in each of the 3 procedures.
(§6) Based on data obtained from numerous previous studies with cannabinoids, maximal cannabinoid effects in each procedure were estimated as follows: 90% inhibition of spontaneous activity, 100% MPE in the tail flick procedure, and −6° C. change in rectal temperature. ED50's were defined as the dose at which half maximal effect occurred. For drugs that produced one or more cannabinoid effect, ED50's were calculated separately using least-squares linear regression on the linear part of the dose-effect curve for each measure in the mouse tetrad, plotted against log10 transformation of the dose. For the purposes of potency comparison, potencies were expressed as μmol/kg.

[3] = system: Male ICR mice; experiment: Tail-flick antinociception (TF, % MPE) in mice; assay type: in vivo, mouse; settings: for ED50: Mus musculus, iv; for T.F. % effect at dose: @ 30 (mg/kg); for TF percent effect (% MPE) at the highest dose: 30 mg/kg
Method: as §2, §3, §4, §5, §6

[4] = system: Male ICR mice; experiment: Change in rectal temperature (RT) in mice; assay type: in vivo, mouse; settings: for ED50: Mus musculus, iv; for R.T. effect at dose: @ 30 (mg/kg); for RT effect at the highest dose (change in rectal temperature): 30 mg/kg
Method: as §2, §3, §4, §5, §6

[5] = target: T2, CB1 receptor (Rattus norvegicus, UniProt P20272); experiment: CB1 binding procedure: displacement of [3H]CP 55,940 from rat whole-brain P2 membranes; design: whole brain was homogenized and centrifuged; from tissue; host or cells: rat whole brain, P2 membrane fraction; settings: for Ki: [3H]CP 55,940, rat brain membranes
T2 sequence (P20272 whole entry): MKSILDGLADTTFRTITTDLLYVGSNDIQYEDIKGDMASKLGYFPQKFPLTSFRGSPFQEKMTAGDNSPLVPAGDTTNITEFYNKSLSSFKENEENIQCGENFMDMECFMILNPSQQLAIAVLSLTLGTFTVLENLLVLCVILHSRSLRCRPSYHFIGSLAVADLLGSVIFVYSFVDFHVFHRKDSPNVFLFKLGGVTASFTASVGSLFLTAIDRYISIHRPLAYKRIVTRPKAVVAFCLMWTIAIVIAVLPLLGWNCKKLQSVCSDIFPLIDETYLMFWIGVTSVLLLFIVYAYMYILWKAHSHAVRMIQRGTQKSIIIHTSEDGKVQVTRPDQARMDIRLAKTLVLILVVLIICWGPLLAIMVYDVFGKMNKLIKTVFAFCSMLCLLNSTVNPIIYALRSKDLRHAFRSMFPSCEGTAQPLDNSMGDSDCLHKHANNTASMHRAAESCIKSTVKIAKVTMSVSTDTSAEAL
Method: as §2
The methods used for tissue preparation and binding have been described previously (Compton et al., 1993) and are similar to those described by Devane et al. (1988). All assays, as described briefly below, were performed in triplicate, and the results represent the combined data from three to six individual experiments.
Following decapitation and rapid removal of the brain, whole brain was homogenized and centrifuged. The resulting pellet was termed P1. The supernatant was saved and combined with the two subsequent supernatants obtained from washing of the P1 pellet. The combined supernatant fractions were centrifuged, resulting in the P2 pellet. After further incubation and centrifuging, this pellet was resuspended in assay buffer to a protein concentration of approximately 2 mg/ml. The membrane preparation was quickly frozen in a bath solution of dry ice and 2-methylbutane (Sigma Chemical Co., St. Louis, Mo.), then stored at −80° C. for no more than 2 weeks. Prior to performing a binding assay an aliquot of frozen membrane was rapidly thawed and protein values determined by the method of Bradford (1976).
Binding was initiated by the addition of 150 μg of P2 membrane to test tubes containing 1 nM of [^3H] CP 55,940 (79 Ci/mmol) and a sufficient quantity of buffer to bring the total incubation volume to 1 ml. Nonspecific binding was determined by the addition of 1 μM unlabeled CP 55,940. Following incubation at 30° C. for 1 hr, binding was terminated by addition of ice cold buffer and vacuum filtration through pretreated filters in a 12-well sampling manifold (Millipore, Bedford, Mass.). After washing, filters were placed into plastic scintillation vials (Packard, Downer Grove, Ill.) and shaken. The quantity of radioactivity present was determined by liquid scintillation spectrometry.
as §1

[6] = target: T2, CB1 receptor; settings: values from Hanu et al 1999; ligand [3H]HU-243; cited from earlier work
[7] = means ± SEM, read-out: Ki (nM) CB2
[8] = 95% confidence limits in parentheses
[9] = Table 6, mice, i.v., read-out: T.F. ED50
[10] = mice, i.v., 95% confidence limits in parentheses, read-out: ED50 TF (antinociceptive effect in tail flick assay)
[11] = Table 6, mice, i.v., read-out: R.T. ED50
[12] = mice, i.v., 95% confidence limits in parentheses, read-out: ED50 RT (rectal temperature)
[13] = means ± SEM, read-out: Ki (nM) CB1
[14] = mice, i.v., 95% confidence limits in parentheses
[15] = 95% confidence limits in parentheses, read-out: ED50 SA (suppression of spontaneous activity)

SMILES | CB1/CB2 (ratio of Ki) [1] | Ki [1, 7] | ED50 [3, 10] | ED50 [4, 12] | Ki [5, 13] | S.A % effect at dose ([2]; Table 6) | T.F. % effect at dose ([3]; Table 6) | also measured
CCCCCCC(C)(C)c1cc(O)c(C2CCCC(C)C2)c(O)c1 (single isomer, unassigned) [O-1797A] | 12 | 0.4 ± 0.03 nM | 1.1 µmol/kg | 0.7 µmol/kg | 5 ± 0.6 nM | – | – | S.A ED50 ([2]; Table 6, listed as O-1297): 0.154 mg/kg; ED50 SA (suppression of spontaneous activity) [2, 8]: 0.5(0.4–0.6) μmol/kg; ED50 [3, 9]: 0.362 mg/kg; ED50 [4, 11]: 0.252 mg/kg
CCCCCCC(C)(C)c1cc(O)c(C2CCCC(C)C2)c(O)c1 (single isomer, unassigned) [O-1798B, 2-(3-Methylcyclohexyl)-5-(1′,1′-dimethylheptyl)-resorcinolisomer B] | 8 | 0.5 ± 0.07 nM | – | – | 4 ± 0.6 nM | – | – | S.A ED50 ([2]; Table 6): 0.070 mg/kg; ED50 SA (suppression of spontaneous activity) [2, 8]: 0.2(0.03–1.2) μmol/kg; T.F. ED50 ([3]; Table 6, mice, i.v.): 0.379 mg/kg; ED50 TF (antinociceptive effect in tail flick assay) [3, 14]: 1.0(0.7–1.6) μmol/kg; R.T. ED50 ([4]; Table 6, mice, i.v.): 0.218 mg/kg; ED50 RT (rectal temperature) [4, 14]: 0.6(0.5–0.7) μmol/kg
CCCCCCC(C)(C)c1cc(OC)c(C2(O)CCCC(C)C2)c(OC)c1 (single isomer, unassigned; isomer 2) [O-1967B, 1-(4-(1,1-Dimethylheptyl-2,6-dimethoxy-phenyl)-3-methyl-cyclohexaol isomer 2] | 15 | 111 ± 8 nM | – | – | 1720 ± 105 nM | 42.9 @ 30% | 8.2% @ 30 | R.T. effect at dose ([4]; Table 6): 0 @ 30 °C
CCCCCCC(C)(C)c1cc(OC)c([C@@H]2C=C(CO)[C@@H]3C[C@H]2C3(C)C)c(OC)c1 [HU-308] | – | – | – | – | – | – | – | Ki [6]: > 10000 nM
CCCCCCC(C)(C)c1cc(O)c(C2CCCC2)c(O)c1 [O-1424, 2-(Cyclopentyl)-dimethylheptyl-resorcinol] | – | 7 ± 0.4 nM | 13 µmol/kg | 13 µmol/kg | 95 ± 6 nM | – | – | ED50 ([2]; Table 6, read-out: S.A ED50): 8.29 mg/kg; ED50 [2, 15]: 27 µmol/kg; ED50 [3, 9]: 4.48 mg/kg; ED50 [4, 11]: 4.24 mg/kg
CCCC(C)(C)c1ccc(-c2cc(C)ccc2C(C)C)c(O)c1 [O-1532] | 8 | 113 ± 21 nM | – | – | 876 ± 18 nM | – | – | SA percent effect at the highest dose [2]: 32%; TF percent effect (% MPE) at the highest dose ([3]; mice, i.v.): 7%; RT effect at the highest dose (change in rectal temperature) ([4]; mice, i.v.): −0.4 °C
CCCCCCC(C)(C)c1ccc(-c2cc(CO)ccc2C(C)C)c(O)c1 [O-1601, 3-1′,1′-Dimethylheptyl-6-(2-isopropyl-5-hydroxy-methylphenyl)-phenol] | 2 | 3 ± 0.4 nM | 1.1 µmol/kg | 1.6 µmol/kg | 5 ± 0.6 nM | – | – | ED50 [2, 15]: 1.1 µmol/kg
CCCCCCC(C)(C)c1cc(O)c(C2CCC(c3ccccc3)CC2)c(O)c1 (stereo not shown) [O-1663, 2-(4-Phenylcyclohexyl)-5-(1′,1′-dimethylheptyl)-resorcinol] | 16 | – | – | – | – | 32% @ 30 | 7% @ 30 | Ki ([1]; Ki (nM) CB2, means ± SEM): 9 ± 2 nM; fold decrease in CB2 affinity [1]: 2 fold; SA percent effect at the highest dose [2]: 32%(30); TF percent effect (% MPE) at the highest dose ([3]; mice, i.v.): 7%(30); RT effect at the highest dose (change in rectal temperature) ([4]; mice, i.v.): −2.2(30) °C; Ki ([5]; Ki (nM) CB1, means ± SEM): 144 ± 22 nM; fold decrease in CB1 affinity ([5]; relative to the comparator analog): 3 fold
CCCCCCC(C)(C)c1cc(OC)c(C2CCCC(C)C2)c(OC)c1 (stereo not shown) [O-1999] | – | 466 ± 110 nM | – | – | > 10000 nM | 4 @ 30% | 6 @ 30% | fold decrease in CB2 affinity [1]: ~600 fold; R.T. effect at dose ([4]; Table 6): 1 @ 30 °C
